Experimental data: ChEMBL document CHEMBL5625203, “Diclofenac and eugenol hybrid with enhanced anti-inflammatory activity through activating HO-1 and inhibiting NF-κB pathway in vitro and in vivo” (Eur J Med Chem, 2023)
Calls of active or inactive are those of the source. The calls are words filed in the database; no cut-off is given here.

Key:
RAW264.7 [1] = experiment: Antiinflammatory activity in mouse RAW264.7 cells assessed as inhibition of LPS-induced NO production at 50 uM preincubated for 3 hrs followed by LPS stimulation and measured after 12 hrs by Griess reagent based assay relative to control; assay type: functional; design: scale not given: the % may be the effect or the level left
RAW264.7 [2] = experiment: Cytotoxicity against mouse RAW264.7 cells at 50 uM by MTT assay relative to control; assay type: functional
Mus musculus [3] = experiment: Anti-inflammatory activity against DSS-induced ulcerative colitis C57BL/6J mouse model assessed as amelioration of inflammatory cell infiltration in colon at 40 mg/kg, IG for 7 days consecutively by H and E staining based microscopic analysis; assay type: functional, organism-based; conditions: time 7.0 day
RAW264.7 [4] = experiment: Antiinflammatory activity in LPS-stimulated mouse RAW264.7 cells assessed as reduction in iNOS level at 50 uM preincubated for 3 hrs followed by LPS stimulation for 12 hrs by Western blot analysis; assay type: functional, cell-based; conditions: time 15.0 hrs
Mus musculus [5] = experiment: Anti-inflammatory activity against DSS-induced ulcerative colitis C57BL/6J mouse model assessed as reduction in colon shortening at 40 mg/kg, IG for 7 days; assay type: functional, organism-based; conditions: time 7.0 day
Mus musculus [6] = experiment: Anti-inflammatory activity against DSS-induced ulcerative colitis C57BL/6J mouse model assessed as protection of body weight loss at 40 mg/kg, IG for 7 days; assay type: functional, organism-based; conditions: time 7.0 day
Mus musculus [7] = experiment: Anti-inflammatory activity against DSS-induced ulcerative colitis C57BL/6J mouse model assessed as improvement in colonic structure at 40 mg/kg, IG for 7 days consecutively by H and E staining based microscopic analysis; assay type: functional, organism-based; conditions: time 7.0 day
Mus musculus [8] = experiment: Anti-inflammatory activity against DSS-induced ulcerative colitis C57BL/6J mouse model assessed as inhibition of colonic phosphorylation of NF-kappaB expression at 20 mg/kg, IG for 7 days consecutively by Western blot analysis; assay type: functional, organism-based; conditions: time 7.0 day
Mus musculus [9] = experiment: Anti-inflammatory activity against DSS-induced ulcerative colitis C57BL/6J mouse model assessed as reduction in DAI scores at 40 mg/kg, IG for 7 days; assay type: functional, organism-based; conditions: time 7.0 day
[10] = Acute ulcerogenic activity in Wistar rat assessed as ulcer index at level 2 (1 to 3 mm) at 100 mg/kg, po measured after 6 days; assay type: toxicity, organism-based; conditions: in vivo, 144 h, time 6 day
RAW264.7 [11] = experiment: Antiinflammatory activity in LPS-stimulated mouse RAW264.7 cells assessed as upregulation of Nrf2 expression at 50 uM preincubated for 3 hrs followed by LPS stimulation for 12 hrs by Western blot analysis; assay type: functional, cell-based; conditions: time 15.0 hrs
RAW264.7 [12] = experiment: Antiinflammatory activity in LPS-stimulated mouse RAW264.7 cells assessed as inhibition of nuclear translocation of NF-kappaB p65 at 50 uM measured after 12 hrs by confocal fluorescence microscopy based analysis; assay type: functional, cell-based
Mus musculus [13] = experiment: Anti-inflammatory activity against DSS-induced ulcerative colitis C57BL/6J mouse model assessed as activation of colonic HO-1 expression at 20 mg/kg, IG for 7 days consecutively by Western blot analysis; assay type: functional, organism-based; conditions: time 7.0 day
RAW264.7 [14] = experiment: Antiinflammatory activity in LPS-stimulated mouse RAW264.7 cells assessed as increase in nuclear translocation of NF-kappaB p65 at 50 uM measured after 12 hrs in presence of ZnPP by confocal fluorescence microscopy based analysis; assay type: functional, cell-based
RAW264.7 [15] = experiment: Antiinflammatory activity in LPS-stimulated mouse RAW264.7 cells assessed as decrease in NF-kappaB p65 phosphorylation at 50 uM preincubated for 3 hrs followed by LPS stimulation for 12 hrs by Western blot analysis; assay type: functional, cell-based; conditions: time 15.0 hrs
RAW264.7 [16] = experiment: Antioxidant activity in mouse RAW264.7 cells assessed as inhibition of LPS-induced intracellular ROS production at 50 uM measured after 12 hrs by flow cytometry analysis; assay type: functional, cell-based
RAW264.7 [17] = experiment: Antiinflammatory activity in mouse RAW264.7 cells assessed as as inhibition of LPS-induced NOS2 mRNA expression at 50 uM preincubated for 3 hrs followed by LPS stimulation for 12 hrs by RT-qPCR analysis; assay type: functional, cell-based; conditions: time 15.0 hrs
RAW264.7 [18] = experiment: Antiinflammatory activity in LPS-stimulated mouse RAW264.7 cells assessed as increase in HO-1 level at 50 uM preincubated for 3 hrs followed by LPS stimulation for 12 hrs by Western blot analysis; assay type: functional, cell-based; conditions: time 15.0 hrs
RAW264.7 [19] = experiment: Antiinflammatory activity in LPS-stimulated mouse RAW264.7 cells assessed as increase in GCLM mRNA expression by RT-qPCR analysis; assay type: functional, cell-based
[20] = Acute ulcerogenic activity in Wistar rat assessed as ulcer index at level 3 (>3 mm) at 100 mg/kg, po measured after 6 days; assay type: toxicity, organism-based; conditions: in vivo, 144 h, time 6 day
[21] = Acute ulcerogenic activity in Wistar rat assessed as ulcer index at level 1 (<1 mm) at 100 mg/kg, po measured after 6 days; assay type: toxicity, organism-based; conditions: in vivo, 144 h, time 6 day
RAW264.7 [22] = experiment: Antiinflammatory activity in LPS-stimulated mouse RAW264.7 cells assessed as increase in accumulation of cytosolic IkappaB-alpha level at 50 uM preincubated for 3 hrs followed by LPS stimulation for 12 hrs by Western blot analysis; assay type: functional, cell-based; conditions: time 15.0 hrs
[23] = Acute ulcerogenic activity in Wistar rat assessed as Ulcer index at 100 mg/kg, po measured after 6 days; assay type: toxicity, organism-based; conditions: in vivo, 144 h, time 6 day
RAW264.7 [24] = experiment: Antiinflammatory activity in LPS-stimulated mouse RAW264.7 cells assessed as increase in HO-1 mRNA expression by RT-qPCR analysis; assay type: functional, cell-based
[25] = Toxicity in C57BL/6J mouse; conditions: in vivo
RAW264.7 [26] = experiment: Antiinflammatory activity in LPS-stimulated mouse RAW264.7 cells assessed as reduction in IkappaB-alpha phosphorylation level at 50 uM preincubated for 3 hrs followed by LPS stimulation for 12 hrs by Western blot analysis; assay type: functional, cell-based; conditions: time 15.0 hrs
RAW264.7 [27] = experiment: Antiinflammatory activity in LPS-stimulated mouse RAW264.7 cells assessed as increase in NF-kappaB phosphorylation preincubated for 3 hrs followed by LPS stimulation for 12 hrs in presence of ZnPP by Western blot analysis; assay type: functional, cell-based; conditions: dose 2.5-20 µM

COC(=O)c1ccc(COC(=O)Cc2ccccc2Nc2c(Cl)cccc2Cl)cc1 gave an Activity (RAW264.7 [1]; time 15 hrs) of 35% and an Activity (RAW264.7 [2]) of 100%.

With O=C(Cc1ccccc1Nc1c(Cl)cccc1Cl)OCc1ccco1 the Activity (RAW264.7 [1]; time 15 hrs) was 15% and the Activity (RAW264.7 [2]) was 77%.

CC(=O)Nc1ccc(OC(=O)Cc2ccccc2Nc2c(Cl)cccc2Cl)cc1 gave an Activity (RAW264.7 [1]; time 15 hrs) of 31% and an Activity (RAW264.7 [2]) of 108%.

With O=C(Cc1ccccc1Nc1c(Cl)cccc1Cl)OC/C=C/c1ccccc1 the Activity (RAW264.7 [1]; time 15.0 hrs) was “inactive” and the Activity (RAW264.7 [2]) was 95%.

In the case of O=C(O)Cc1ccccc1Nc1c(Cl)cccc1Cl, the Activity (Mus musculus [3]) is reported as “inactive”, the Activity (RAW264.7 [4]) is reported as “Active” and the Activity (Mus musculus [5]) is reported as “inactive”. For the same molecule, the Activity (Mus musculus [6]) was “inactive”, the Activity (Mus musculus [7]) was “inactive” and the Activity (Mus musculus [8]) was “inactive”. The Activity (Mus musculus [9]) was “inactive”.

Molecule COc1cc(COC(=O)Cc2ccccc2Nc2c(Cl)cccc2Cl)cc(OC)c1 has an Activity (RAW264.7 [1]; time 15 hrs) of 5% and an Activity (RAW264.7 [2]) of 73%.

For CCc1ccc(OC(=O)Cc2ccccc2Nc2c(Cl)cccc2Cl)cc1, the Activity (RAW264.7 [1]; time 15 hrs) was 12% and the Activity (RAW264.7 [2]) was 109%.

In the case of C=CCc1ccc(OC(=O)Cc2ccccc2Nc2c(Cl)cccc2Cl)c(OC)c1, the Activity [10] is reported as 10%, the Activity (RAW264.7 [11]) is reported as “Active” and the Activity (RAW264.7 [12]) is reported as “Active”. The Activity (Mus musculus [13]) was “Active”, the Activity (RAW264.7 [14]) was “Active” and the Activity (RAW264.7 [15]) was “Active”. For the same molecule, the Activity (RAW264.7 [16]) was “Active”, the Activity (RAW264.7 [17]) was “Active” and the Activity (Mus musculus [3]) was “Active”. For the same molecule, the Activity (RAW264.7 [18]) was “Active”, the Activity (RAW264.7 [4]) was “Active” and the Activity (RAW264.7 [1]; time 15 hrs) was 66%. For the same molecule, the Activity (RAW264.7 [2]) was 98%, the Activity (RAW264.7 [19]) was “Active” and the Activity [20] was 0%. The Activity (Mus musculus [5]) was “Active”, the Activity [21] was 90% and the Activity (RAW264.7 [22]) was “Active”. For the same molecule, the UI [23] was 11, the Activity (Mus musculus [6]) was “Active” and the Activity (Mus musculus [7]) was “Active”. For the same molecule, the Activity (RAW264.7 [24]) was “Active”, the Activity [25] was “Toxic” and the Activity (Mus musculus [8]) was “Active”. The Activity (RAW264.7 [26]) was “Active”, the Activity (Mus musculus [9]) was “Active” and the Activity (RAW264.7 [27]) was “Dose-Dependent Effect”.

In the case of O=C(Cc1ccccc1Nc1c(Cl)cccc1Cl)OCc1ccccc1, the Activity (RAW264.7 [1]; time 15 hrs) is reported as 40% and the Activity (RAW264.7 [2]) is reported as 94%.

For COC(=O)c1ccccc1-c1cccc(COC(=O)Cc2ccccc2Nc2c(Cl)cccc2Cl)c1, the Activity (RAW264.7 [1]; time 15 hrs) was 26% and the Activity (RAW264.7 [2]) was 102%.
